Assay results as given in ChEMBL document CHEMBL3400001, “Tricyclic 1,5-naphthyridinone oxabicyclooctane-linked novel bacterial topoisomerase inhibitors as broad-spectrum antibacterial agents-SAR of left-hand-side moiety (Part-2)” (Bioorg Med Chem Lett, 2015).
Values after ≈ are worked out from the molar mass of the structure shown. Active and inactive are the calls of the source. The rule behind the calls is not given here.

How the values were obtained:
Staphylococcus aureus [1] = assay: Antimicrobial activity against Staphylococcus aureus Smith by micro broth dilution or agar based method; type: functional
Haemophilus influenzae = assay: Antimicrobial activity against Haemophilus influenzae ATCC 49247 by micro broth dilution or agar based method; type: functional
Streptococcus pneumoniae = assay: Antimicrobial activity against Streptococcus pneumoniae IID554 by micro broth dilution or agar based method; type: functional
Enterococcus faecium = assay: Antimicrobial activity against vancomycin-resistant Enterococcus faecium A2373 expressing VanA by micro broth dilution or agar based method; type: functional
[2] = molecular target: T1, Voltage-gated inwardly rectifying potassium channel KCNH2 (Homo sapiens, UniProt Q12809); assay: Inhibition of human ERG by MK499 binding assay
T1 sequence (Q12809 whole entry): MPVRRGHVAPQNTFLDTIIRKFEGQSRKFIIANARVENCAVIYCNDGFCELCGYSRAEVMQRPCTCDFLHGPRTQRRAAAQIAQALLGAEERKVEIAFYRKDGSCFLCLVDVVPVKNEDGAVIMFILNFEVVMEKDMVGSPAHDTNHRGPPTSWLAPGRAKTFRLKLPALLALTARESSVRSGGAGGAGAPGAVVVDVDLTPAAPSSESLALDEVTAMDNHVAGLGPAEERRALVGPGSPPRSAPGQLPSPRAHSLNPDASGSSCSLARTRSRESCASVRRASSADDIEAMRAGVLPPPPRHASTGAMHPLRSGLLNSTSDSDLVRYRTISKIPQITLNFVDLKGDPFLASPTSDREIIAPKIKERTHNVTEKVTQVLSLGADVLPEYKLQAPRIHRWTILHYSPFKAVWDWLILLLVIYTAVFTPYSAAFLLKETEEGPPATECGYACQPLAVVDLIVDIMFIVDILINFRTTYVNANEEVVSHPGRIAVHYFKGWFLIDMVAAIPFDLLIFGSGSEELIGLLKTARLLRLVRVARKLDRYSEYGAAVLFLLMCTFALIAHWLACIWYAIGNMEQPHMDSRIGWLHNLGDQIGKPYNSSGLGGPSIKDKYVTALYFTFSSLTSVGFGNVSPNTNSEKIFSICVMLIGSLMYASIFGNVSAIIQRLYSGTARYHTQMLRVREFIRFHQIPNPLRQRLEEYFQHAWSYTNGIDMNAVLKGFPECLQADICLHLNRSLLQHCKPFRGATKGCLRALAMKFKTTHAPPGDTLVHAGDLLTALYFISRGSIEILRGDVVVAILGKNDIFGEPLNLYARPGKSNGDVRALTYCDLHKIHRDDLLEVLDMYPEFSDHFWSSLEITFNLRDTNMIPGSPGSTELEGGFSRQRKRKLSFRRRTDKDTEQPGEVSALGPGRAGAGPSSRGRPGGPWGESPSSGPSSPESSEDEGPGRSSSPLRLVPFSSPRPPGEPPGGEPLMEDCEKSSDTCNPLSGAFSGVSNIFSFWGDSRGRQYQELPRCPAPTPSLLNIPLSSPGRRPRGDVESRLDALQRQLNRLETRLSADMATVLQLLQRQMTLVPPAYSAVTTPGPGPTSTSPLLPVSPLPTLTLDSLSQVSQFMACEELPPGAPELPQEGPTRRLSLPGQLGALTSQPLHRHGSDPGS

Moraxella catarrhalis = assay: Antimicrobial activity against Moraxella catarrhalis ATCC 25238 by micro broth dilution or agar based method; type: functional
Pseudomonas aeruginosa = assay: Antimicrobial activity against Pseudomonas aeruginosa PAO1 by micro broth dilution or agar based method; type: functional
Acinetobacter baumannii = assay: Antimicrobial activity against Acinetobacter baumannii IID876 by micro broth dilution or agar based method; type: functional
Escherichia coli = assay: Antimicrobial activity against Escherichia coli ATCC 25922 by micro broth dilution or agar based method; type: functional
Enterococcus faecalis = assay: Antimicrobial activity against Enterococcus faecalis ATCC 29212 MB by micro broth dilution or agar based method; type: functional
Staphylococcus aureus [3] = assay: Ratio of MIC for quinolone-resistant Staphylococcus aureus MS5935 to MIC for quinolone-[…]; type: functional
Staphylococcus aureus [4] = assay: Antimicrobial activity against Staphylococcus aureus infected in mouse model of bacteremia at 50 mg/kg, iv; type: functional, organism-based; parameters: dose 50 mg/kg
Staphylococcus aureus [5] = assay: Antimicrobial activity against Staphylococcus aureus infected in mouse model of bacteremia at 50 mg/kg, po; type: functional, organism-based; parameters: dose 50 mg/kg
[6] = molecular target: T1, Voltage-gated inwardly rectifying potassium channel KCNH2; assay: Inhibition of human ERG expressed in CHO cells by Patch express assay; type: cell-based
[7] = Plasma clearance in C57BL/6 mouse at 1 mg/kg, iv or 2 mg/kg, po; type: ADME, organism-based
Staphylococcus aureus [8] = assay: Antimicrobial activity against Staphylococcus aureus infected in orally dosed mouse model of bacteremia; type: functional; settings: po
[9] = Oral bioavailability in C57BL/6 mouse at 2 mg/kg; type: ADME, organism-based; settings: in vivo
[10] = Half life in C57BL/6 mouse at 1 mg/kg, iv or 2 mg/kg, po; type: ADME, organism-based; settings: in vivo
Staphylococcus aureus [11] = assay: Antimicrobial activity against Staphylococcus aureus infected in intravenously dosed mouse model of bacteremia; type: functional; settings: iv
[12] = Volume of distribution at steady state in C57BL/6 mouse at 1 mg/kg, iv or 2 mg/kg, po; type: ADME, organism-based; settings: in vivo, read-out: Vdss
[13] = AUC in C57BL/6 mouse at 1 mg/kg, iv; type: ADME, organism-based; parameters: dose 1 mg/kg, route intravenous; settings: plasma
Staphylococcus aureus [14] = assay: Antimicrobial activity against quinolone-sensitive Staphylococcus aureus MS5935
Staphylococcus aureus [15] = assay: Antimicrobial activity against quinolone-resistant Staphylococcus aureus MS5935; type: functional
[16] = Staphylococcus aureus, Smith, read-out: MIC
[17] = Streptococcus pneumoniae, IID554, read-out: MIC
[18] = Enterococcus faecium, A2373, read-out: MIC
[19] = Pseudomonas aeruginosa, PAO1, read-out: MIC
[20] = Acinetobacter baumannii, IID876, read-out: MIC
[21] = Escherichia coli, ATCC 25922, read-out: MIC
[22] = Enterococcus faecalis, ATCC 29212 MB, read-out: MIC

SMILES	MIC (Staphylococcus aureus [1]; [16]) [µg/mL]	MIC (Haemophilus influenzae) [µg/mL]	MIC (Streptococcus pneumoniae; [17]) [µg/mL]	MIC (Enterococcus faecium; [18]) [µg/mL]	IC50 [2] [µM]	MIC (Moraxella catarrhalis) [µg/mL]	MIC (Pseudomonas aeruginosa; [19]) [µg/mL]	MIC (Acinetobacter baumannii; [20]) [µg/mL]	MIC (Escherichia coli; [21]) [µg/mL]	MIC (Enterococcus faecalis; [22]) [µg/mL]	Ratio (Staphylococcus aureus [3])	further results
O=C1COc2ccc(CNC34CCC(C[C@]5(O)Cn6c(=O)c(F)cc7ncc(F)c5c76)(CC3)OC4)nc2N1	0.25 (≈ 0.476 µM)	1 (≈ 1.9 µM)	0.5 (≈ 0.951 µM)	4 (≈ 7.61 µM)	> 60	0.25 (≈ 0.476 µM)	16 (≈ 30.4 µM)	4 (≈ 7.61 µM)	4 (≈ 7.61 µM)	2 (≈ 3.81 µM)	<4	
O=C1COc2ccc(CNC34CCC(C[C@@]5(O)Cn6c(=O)c(F)cc7ncc(F)c5c76)(CC3)OC4)nc2N1	4 (≈ 7.61 µM)	8 (≈ 15.2 µM)	4 (≈ 7.61 µM)	32 (≈ 60.9 µM)	> 60	1 (≈ 1.9 µM)	32 (≈ 60.9 µM)	32 (≈ 60.9 µM)	16 (≈ 30.4 µM)	16 (≈ 30.4 µM)	<4	
COc1cnc2ccc(=O)n3c2c1[C@](O)(CC12CCC(NCc4ccc5c(n4)NC(=O)CO5)(CC1)CO2)C3	8 (≈ 15.4 µM)		8 (≈ 15.4 µM)	32 (≈ 61.6 µM)			32 (≈ 61.6 µM)	32 (≈ 61.6 µM)	32 (≈ 61.6 µM)	32 (≈ 61.6 µM)		
O=C1COc2ccc(CNC34CCC(C[C@@]5(O)Cn6c(=O)ccc7ncc(F)c5c76)(CC3)OC4)nc2N1	2 (≈ 3.94 µM)		4 (≈ 7.88 µM)	32 (≈ 63.1 µM)			32 (≈ 63.1 µM)	32 (≈ 63.1 µM)	16 (≈ 31.5 µM)	8 (≈ 15.8 µM)		Activity (Staphylococcus aureus [4]): inactive; Activity (Staphylococcus aureus [5]): inactive
O=C1COc2ccc(CNC34CCC(C[C@]5(O)Cn6c(=O)ccc7nc(Cl)c(F)c5c76)(CC3)OC4)nc2N1	4 (≈ 7.38 µM)		8 (≈ 14.8 µM)	32 (≈ 59 µM)		4 (≈ 7.38 µM)	32 (≈ 59 µM)	32 (≈ 59 µM)	32 (≈ 59 µM)	16 (≈ 29.5 µM)		
Cc1cc(=O)n2c3c(c(F)cnc13)[C@@](O)(CC13CCC(NCc4ccc5c(n4)NC(=O)CO5)(CC1)CO3)C2	8 (≈ 15.3 µM)	16 (≈ 30.7 µM)	8 (≈ 15.3 µM)	32 (≈ 61.4 µM)	> 60	2 (≈ 3.83 µM)	32 (≈ 61.4 µM)	2 (≈ 3.83 µM)	32 (≈ 61.4 µM)	16 (≈ 30.7 µM)	<4	
O=C1COc2ccc(CNC34CCC(CC5(O)Cn6c(=O)cc(Cl)c7ncc(F)c5c76)(CC3)OC4)nc2N1 (racemic)	2 (≈ 3.69 µM)	8 (≈ 14.8 µM)	2 (≈ 3.69 µM)	32 (≈ 59 µM)	> 60	1 (≈ 1.85 µM)	32 (≈ 59 µM)	8 (≈ 14.8 µM)	8 (≈ 14.8 µM)	8 (≈ 14.8 µM)	<4	
O=C1COc2ccc(CNC34CCC(CC5(O)Cn6c(=O)c(Cl)cc7ncc(F)c5c76)(CC3)OC4)nc2N1 (racemic)	2 (≈ 3.69 µM)	8 (≈ 14.8 µM)	2 (≈ 3.69 µM)	32 (≈ 59 µM)	> 60	2 (≈ 3.69 µM)	32 (≈ 59 µM)	16 (≈ 29.5 µM)	16 (≈ 29.5 µM)	8 (≈ 14.8 µM)	<4	
O=C1COc2ccc(CNC34CCC(C[C@@]5(O)Cn6c(=O)ccc7ncc(Cl)c5c76)(CC3)OC4)nc2N1	4 (≈ 7.63 µM)		4 (≈ 7.63 µM)	32 (≈ 61.1 µM)	> 60		32 (≈ 61.1 µM)	32 (≈ 61.1 µM)	32 (≈ 61.1 µM)	16 (≈ 30.5 µM)	<4	
O=C1COc2ccc(CNC34CCC(CC5Cn6c(=O)ccc7ncc(F)c5c76)(CC3)OC4)nc2N1 (stereo in doubt; 10)					12.3							MIC (Staphylococcus aureus [1]): 0.5 µg/mL (≈ 1.02 µM); IC50 [6]: 21.6 µM; MIC (Streptococcus pneumoniae): 0.5 µg/mL (≈ 1.02 µM); MIC (Enterococcus faecium): 4 µg/mL (≈ 8.14 µM); MIC (Pseudomonas aeruginosa): 16 µg/mL (≈ 32.6 µM); MIC (Acinetobacter baumannii): 8 µg/mL (≈ 16.3 µM); MIC (Escherichia coli): 2 µg/mL (≈ 4.07 µM); MIC (Enterococcus faecalis): 2 µg/mL (≈ 4.07 µM)
O=C1COc2ccc(CNC34CCC(CC5(F)Cn6c(=O)ccc7ncc(F)c5c76)(CC3)OC4)nc2N1 (racemic)	0.25 (≈ 0.491 µM)		0.5 (≈ 0.981 µM)	4 (≈ 7.85 µM)			32 (≈ 62.8 µM)	1 (≈ 1.96 µM)	4 (≈ 7.85 µM)	2 (≈ 3.93 µM)		
O=C1COc2ccc(CNC34CCC(C[C@@]5(O)CN6C(=O)CCc7ncc(F)c5c76)(CC3)OC4)nc2N1	8 (≈ 15.7 µM)		32 (≈ 62.8 µM)	32 (≈ 62.8 µM)	> 60		32 (≈ 62.8 µM)	32 (≈ 62.8 µM)	32 (≈ 62.8 µM)	32 (≈ 62.8 µM)	<4	
COc1ccc2ncc(F)c(C[C@H](O)C34CCC(NCc5ccc6c(n5)NC(=O)CO6)(CC3)CO4)c2n1	0.02 (≈ 0.0393 µM)	0.5 (≈ 0.981 µM)	0.05 (≈ 0.0981 µM)	0.5 (≈ 0.981 µM)		0.015 (≈ 0.0294 µM)	8 (≈ 15.7 µM)	0.5 (≈ 0.981 µM)	2 (≈ 3.93 µM)	0.5 (≈ 0.981 µM)		
O=C1COc2ccc(CNC34CCC(C[C@]5(O)Cn6c(=O)ccc7ncc(F)c5c76)(CC3)OC4)nc2N1	0.25 (≈ 0.493 µM)	1 (≈ 1.97 µM)	0.25 (≈ 0.493 µM)	8 (≈ 15.8 µM)		0.25 (≈ 0.493 µM)	16 (≈ 31.5 µM)	2 (≈ 3.94 µM)	4 (≈ 7.88 µM)	4 (≈ 7.88 µM)		clearance [7]: 65 mL/min/kg; ED50 (Staphylococcus aureus [8]): 27 mg/kg; bioavailability [9]: 40%; half-life [10]: 240 min; ED50 (Staphylococcus aureus [11]): < 3.2 mg/kg; Vd [12]: 11.8 L/kg; AUC [13]: 0.45 µM·h
CO[C@]1(CC23CCC(NCc4ccc5c(n4)NC(=O)CO5)(CC2)CO3)Cn2c(=O)ccc3ncc(F)c1c32	8 (≈ 15.3 µM)		32 (≈ 61.4 µM)	32 (≈ 61.4 µM)	24.5		32 (≈ 61.4 µM)	32 (≈ 61.4 µM)	32 (≈ 61.4 µM)	32 (≈ 61.4 µM)	<4	
O=C1COc2ccc(CNC34CCC(C[C@]5(O)CN6C(=O)CCc7ncc(F)c5c76)(CC3)OC4)nc2N1	8 (≈ 15.7 µM)		8 (≈ 15.7 µM)	32 (≈ 62.8 µM)	> 60		32 (≈ 62.8 µM)	32 (≈ 62.8 µM)	32 (≈ 62.8 µM)	16 (≈ 31.4 µM)	<4	
Cc1cc(=O)n2c3c(c(F)cnc13)[C@](O)(CC13CCC(NCc4ccc5c(n4)NC(=O)CO5)(CC1)CO3)C2	0.5 (≈ 0.959 µM)	4 (≈ 7.67 µM)	1 (≈ 1.92 µM)	8 (≈ 15.3 µM)	> 60	0.5 (≈ 0.959 µM)	32 (≈ 61.4 µM)	0.5 (≈ 0.959 µM)	8 (≈ 15.3 µM)	4 (≈ 7.67 µM)	<4	
COc1cnc2ccc(=O)n3c2c1[C@@](O)(CC12CCC(NCc4ccc5c(n4)NC(=O)CO5)(CC1)CO2)C3	8 (≈ 15.4 µM)		32 (≈ 61.6 µM)	32 (≈ 61.6 µM)			32 (≈ 61.6 µM)	32 (≈ 61.6 µM)	32 (≈ 61.6 µM)	32 (≈ 61.6 µM)		
O=C1COc2ccc(CNC34CCC(C[C@]5(O)Cn6c(=O)ccc7ncc(Cl)c5c76)(CC3)OC4)nc2N1	0.5 (≈ 0.954 µM)		1 (≈ 1.91 µM)	8 (≈ 15.3 µM)	53.3		32 (≈ 61.1 µM)	8 (≈ 15.3 µM)	8 (≈ 15.3 µM)	4 (≈ 7.63 µM)	<4	
CO[C@@]1(CC23CCC(NCc4ccc5c(n4)NC(=O)CO5)(CC2)CO3)Cn2c(=O)ccc3ncc(F)c1c32	4 (≈ 7.67 µM)		2 (≈ 3.83 µM)	32 (≈ 61.4 µM)	7.3		32 (≈ 61.4 µM)	16 (≈ 30.7 µM)	32 (≈ 61.4 µM)	8 (≈ 15.3 µM)	<4	
O=C1COc2ccc(CNC34CCC(CC5Cn6c(=O)ccc7ncc(F)c5c76)(CC3)OC4)nc2N1 (racemic)			0.25 (≈ 0.509 µM)		23							MIC (Staphylococcus aureus [1]): 0.12 µg/mL (≈ 0.244 µM); IC50 [6]: 30 µM; MIC (Pseudomonas aeruginosa): 8 µg/mL (≈ 16.3 µM); MIC (Escherichia coli): 1 µg/mL (≈ 2.03 µM)
O=C1COc2ccc(CNC34CCC(CC5Cn6c(=O)ccc7ncc(F)c5c76)(CC3)OC4)nc2N1 (stereo in doubt; 9)					15.2		16 (≈ 32.6 µM)		1 (≈ 2.03 µM)		<4	IC50 [6]: 15.8 µM; MIC (Streptococcus pneumoniae): 0.25 µg/mL (≈ 0.509 µM); MIC (Enterococcus faecium): 1 µg/mL (≈ 2.03 µM); MIC (Acinetobacter baumannii): 0.5 µg/mL (≈ 1.02 µM); MIC (Enterococcus faecalis): 0.5 µg/mL (≈ 1.02 µM)
C[C@H]1COc2c(N3CCN(C)CC3)c(F)cc3c(=O)c(C(=O)O)cn1c23.C[C@H]1COc2c(N3CCN(C)CC3)c(F)cc3c(=O)c(C(=O)O)cn1c23.O [LEVOFLOXACIN]											<4	MIC (Staphylococcus aureus [14]): 0.25 µg/mL; MIC (Staphylococcus aureus [15]): > 16 µg/mL
